Test results as given in PubChem BioAssay AID284 (DTP/NCI, 2004).
Where “and” joins values, the source holds several entries; their conditions need not be identical. Identical values can stand only once. Toxic doses and inconclusive results are not listed.

Test system: BDF1 mice, L1210/MTX-resistant leukemia ip, survival T/C
Test: NCI In Vivo Anticancer Drug Screen. Data for tumor model L1210 Leukemia resistant to Methotrexate; NSC 740 (intraperitoneal) in B6D2F1 (BDF1) mice
Settings: endpoint: mean survival time, higher = longer survival
Protocol: The antitumor activity of compounds was measured in mice bearing transplantable tumors. Survival or tumor size were measured and the results are expressed as the measurement made in the treated group (T) divided by the measurement made in the vehicle treated control group (C). The tumor model used in this assay is L1210 Leukemia resistant to Methotrexate; NSC 740 (intraperitoneal) in B6D2F1 (BDF1) mice

[1] = dose: 12.5 mg/kg/injection, schedule: Q01DX Z (ip), vehicle: saline
[2] = dose: 7.5 mg/kg/injection, schedule: Q01DX Z (ip), vehicle: carboxymethylcellulose (CMC)
[3] = dose: 5.0 mg/kg/injection, schedule: Q01DX Z (ip), vehicle: saline
[4] = dose: 250.0 mg/kg/injection, schedule: Q01DX Z (ip), vehicle: saline
[5] = dose: 500.0 mg/kg/injection, schedule: Q01DX Z (ip), vehicle: saline
[6] = dose: 12.5 mg/kg/injection, schedule: Q01DX Z (ip), vehicle: carboxymethylcellulose (CMC)
[7] = dose: 50.0 mg/kg/injection, schedule: Q01DX Z (ip), vehicle: carboxymethylcellulose (CMC)
[8] = dose: 200.0 mg/kg/injection, schedule: Q01DX010 (ip), vehicle: saline

O=P1(N(CCCl)CCCl)NCCCO1 (stereo not drawn)
T/C (dose: 11.3 mg/kg/injection, schedule: Q01DX010 (ip), vehicle: saline): 100 % of control
T/C [1]: 98 % of control and 103 % of control
T/C (dose: 22.5 mg/kg/injection, schedule: Q01DX Z (ip), vehicle: saline): 174 % of control
T/C (dose: 45.0 mg/kg/injection, schedule: Q01DX010 (ip), vehicle: saline): 152 % of control
T/C (dose: 90.0 mg/kg/injection, schedule: Q01DX010 (ip), vehicle: saline): 87 % of control
T/C (dose: 100.0 mg/kg/injection, schedule: Q01DX Z (ip), vehicle: saline): 88 % of control and 109 % of control
T/C (dose: 200.0 mg/kg/injection, schedule: Q01DX Z (ip), vehicle: saline): 88 % of control and 103 % of control

N#[N+]c1cnc([O-])[nH]c1=O
T/C (dose: 0.16 mg/kg/injection, schedule: Q01DX Z (ip), vehicle: methylcellulose (MC)): 106 % of control
T/C (dose: 0.32 mg/kg/injection, schedule: Q01DX Z (ip), vehicle: methylcellulose (MC)): 103 % of control
T/C (dose: 0.63 mg/kg/injection, schedule: Q01DX Z (ip), vehicle: methylcellulose (MC)): 100 % of control

CSc1ncnc2nc[nH]c12
T/C [2]: 93 % of control
T/C (dose: 15.0 mg/kg/injection, schedule: Q01DX Z (ip), vehicle: carboxymethylcellulose (CMC)): 86 % of control
T/C (dose: 31.0 mg/kg/injection, schedule: Q01DX Z (ip), vehicle: carboxymethylcellulose (CMC)): 122 % of control
T/C (dose: 62.5 mg/kg/injection, schedule: Q01DX Z (ip), vehicle: carboxymethylcellulose (CMC)): 112 % of control
T/C (dose: 125.0 mg/kg/injection, schedule: Q01DX Z (ip), vehicle: carboxymethylcellulose (CMC)): 107 % of control

O=C(Nc1ccc(C2=NCCN2)cc1)c1ccc(C(=O)Nc2ccc(C3=NCCN3)cc2)c([N+](=O)[O-])c1
T/C (dose: 6.0 mg/kg/injection, schedule: Q01DX010 (ip), vehicle: saline): 259 % of control
T/C (dose: 6.3 mg/kg/injection, schedule: Q01DX Z (ip), vehicle: saline): 122 % of control
T/C (dose: 8.0 mg/kg/injection, schedule: Q01DX010 (ip), vehicle: saline): 284 % of control
T/C (dose: 12.0 mg/kg/injection, schedule: Q01DX010 (ip), vehicle: saline): 201 % of control
T/C [1]: 97 % of control
T/C (dose: 18.0 mg/kg/injection, schedule: Q01DX010 (ip), vehicle: saline): 107 % of control
T/C (dose: 25.0 mg/kg/injection, schedule: Q01DX Z (ip), vehicle: saline): 116 % of control and 96 % of control

O=CCC(O)C(O)C(O)CO (stereo not drawn)
T/C (dose: 3.75 mg/kg/injection, schedule: Q01DX Z (ip), vehicle: saline): 113 % of control
T/C [3]: 118 % of control
T/C (dose: 7.5 mg/kg/injection, schedule: Q01DX Z (ip), vehicle: saline): 114 % of control and 103 % of control
T/C (dose: 10.0 mg/kg/injection, schedule: Q01DX Z (ip), vehicle: saline): 118 % of control
T/C (dose: 15.0 mg/kg/injection, schedule: Q01DX Z (ip), vehicle: saline): 114 % of control
T/C [4]: 108 % of control
T/C [5]: 104 % of control
T/C (dose: 750.0 mg/kg/injection, schedule: Q01DX Z (ip), vehicle: saline): 99 % of control
T/C (dose: 1000.0 mg/kg/injection, schedule: Q01DX Z (ip), vehicle: saline): 91 % of control

CC1(C)N=C(N)N=C(N)N1c1cccc(Br)c1
T/C (dose: 2.0 mg/kg/injection, schedule: Q01DX Z (ip), vehicle: carboxymethylcellulose (CMC)): 97 % of control
T/C (dose: 6.25 mg/kg/injection, schedule: Q01DX Z (ip), vehicle: carboxymethylcellulose (CMC)): 109 % of control
T/C [6]: 98 % of control
T/C (dose: 25.0 mg/kg/injection, schedule: Q01DX Z (ip), vehicle: carboxymethylcellulose (CMC)): 98 % of control
T/C [7]: 92 % of control

CNC=O
T/C (dose: 125.0 mg/kg/injection, schedule: Q01DX Z (ip), vehicle: saline): 117 % of control
T/C (dose: 150.0 mg/kg/injection, schedule: Q01DX Z (ip), vehicle: saline): 104 % of control
T/C [4]: 111 % of control
T/C (dose: 300.0 mg/kg/injection, schedule: Q01DX Z (ip), vehicle: saline): 156 % of control
T/C [5]: 112 % of control

CCN(CC)CCNc1ccc(C)c2sc3ccccc3c(=O)c12
T/C (dose: 1.6 mg/kg/injection, schedule: Q01DX Z (ip), vehicle: methylcellulose (MC)): 89 % of control and 93 % of control
T/C (dose: 3.2 mg/kg/injection, schedule: Q01DX Z (ip), vehicle: methylcellulose (MC)): 93 % of control
T/C (dose: 6.3 mg/kg/injection, schedule: Q01DX Z (ip), vehicle: methylcellulose (MC)): 93 % of control
T/C (dose: 20.0 mg/kg/injection, schedule: Q01DX Z (ip), vehicle: carboxymethylcellulose (CMC)): 112 % of control
T/C (dose: 25.0 mg/kg/injection, schedule: Q01DX010 (ip), vehicle: saline): 159 % of control
T/C (dose: 40.0 mg/kg/injection, schedule: Q01DX Z (ip), vehicle: carboxymethylcellulose (CMC)): 106 % of control
T/C (dose: 50.0 mg/kg/injection, schedule: Q01DX010 (ip), vehicle: saline): 124 % of control
T/C (dose: 80.0 mg/kg/injection, schedule: Q01DX Z (ip), vehicle: carboxymethylcellulose (CMC)): 113 % of control
T/C (dose: 100.0 mg/kg/injection, schedule: Q01DX010 (ip), vehicle: saline): 213 % of control
T/C [8]: 86 % of control

CC(CCC(C)OS(C)(=O)=O)OS(C)(=O)=O (stereo not drawn)
T/C (dose: 3.75 mg/kg/injection, schedule: Q01DX Z (ip), vehicle: carboxymethylcellulose (CMC)): 86 % of control
T/C (dose: 5.0 mg/kg/injection, schedule: Q01DX Z (ip), vehicle: carboxymethylcellulose (CMC)): 114 % of control
T/C [2]: 106 % of control
T/C (dose: 10.0 mg/kg/injection, schedule: Q01DX Z (ip), vehicle: carboxymethylcellulose (CMC)): 91 % of control
T/C [6]: 98 % of control
T/C [7]: 88 % of control
T/C (dose: 75.0 mg/kg/injection, schedule: Q01DX Z (ip), vehicle: carboxymethylcellulose (CMC)): 98 % of control

CN(C)CC(=O)c1ccc(O)c(O)c1
T/C [8]: 117 % of control
T/C (dose: 300.0 mg/kg/injection, schedule: Q01DX010 (ip), vehicle: saline): 109 % of control
T/C (dose: 450.0 mg/kg/injection, schedule: Q01DX010 (ip), vehicle: saline): 104 % of control
T/C (dose: 675.0 mg/kg/injection, schedule: Q01DX010 (ip), vehicle: saline): 111 % of control

S=c1nc[nH]c2nc[nH]c12
T/C (dose: 1.2 mg/kg/injection, schedule: Q01DX Z (ip), vehicle: carboxymethylcellulose (CMC)): 118 % of control
T/C (dose: 2.4 mg/kg/injection, schedule: Q01DX Z (ip), vehicle: carboxymethylcellulose (CMC)): 91 % of control
T/C (dose: 3.0 mg/kg/injection, schedule: Q01DX Z (ip), vehicle: carboxymethylcellulose (CMC)): 95 % of control
T/C (dose: 5.0 mg/kg/injection, schedule: Q01DX010 (ip), vehicle: alkali diluted with saline): 100 % of control
T/C (dose: 5.0 mg/kg/injection, schedule: Q01DX Z (ip), vehicle: alkali diluted with saline): 120 % of control and 91 % of control and 102 % of control
T/C (dose: 6.0 mg/kg/injection, schedule: Q01DX Z (ip), vehicle: carboxymethylcellulose (CMC)): 111 % of control
T/C (dose: 9.0 mg/kg/injection, schedule: Q01DX Z (ip), vehicle: carboxymethylcellulose (CMC)): 95 % of control
T/C (dose: 10.0 mg/kg/injection, schedule: Q01DX010 (ip), vehicle: alkali diluted with saline): 99 % of control
T/C (dose: 10.0 mg/kg/injection, schedule: Q01DX Z (ip), vehicle: alkali diluted with saline): 94 % of control and 110 % of control
T/C (dose: 12.0 mg/kg/injection, schedule: Q01DX Z (ip), vehicle: carboxymethylcellulose (CMC)): 98 % of control
T/C (dose: 20.0 mg/kg/injection, schedule: Q01DX010 (ip), vehicle: alkali diluted with saline): 101 % of control
T/C (dose: 20.0 mg/kg/injection, schedule: Q01DX Z (ip), vehicle: alkali diluted with saline): 117 % of control and 91 % of control and 102 % of control
T/C (dose: 25.0 mg/kg/injection, schedule: Q01DX Z (ip), vehicle: other): 93 % of control and 103 % of control
T/C (dose: 36.0 mg/kg/injection, schedule: Q01DX Z (ip), vehicle: carboxymethylcellulose (CMC)): 102 % of control
T/C (dose: 40.0 mg/kg/injection, schedule: Q01DX010 (ip), vehicle: alkali diluted with saline): 104 % of control
T/C (dose: 80.0 mg/kg/injection, schedule: Q01DX010 (ip), vehicle: alkali diluted with saline): 95 % of control
T/C (dose: 100.0 mg/kg/injection, schedule: Q01DX Z (ip), vehicle: other): 123 % of control and 98 % of control

CN(C)c1ccc(/C=C/c2ccnc3ccccc23)cc1
T/C (dose: 2.5 mg/kg/injection, schedule: Q01DX Z (ip), vehicle: saline): 121 % of control
T/C (dose: 5.0 mg/kg/injection, schedule: Q01DX010 (ip), vehicle: saline): 104 % of control
T/C [3]: 101 % of control
T/C (dose: 10.0 mg/kg/injection, schedule: Q01DX010 (ip), vehicle: saline): 95 % of control
